Data as given in patent EP4144350B1, “TREATMENT OR PREVENTION OF VASCULAR MALFORMATION” (Universitätsmedizin Greifswald, priority 2021, dated 2023).

Legend:
human tumour cell lines = details: cited from earlier work
caspase-3 = assay: Caspase-3 activity assay; type: cell-based, human
Protocol: The proliferation rate of mutant and wild-type ECs in monoculture was quantified with the CyQuant® Cell Proliferation Assay Kit (C7026, Thermo Fisher Scientific). To discriminate the proliferation rates of CCM3^+/+ and CCM3^-/- CI-huVEC in co-culture, the CyQuant® Cell Proliferation Assay results were combined with mutant allele frequencies that had been determined by amplicon deep sequencing. To analyse their sensitivity to apoptosis, mutant and wild-type ECs were seeded in 96-well plates with 15.000 cells per well, and treated with staurosporine (S440, Sigma-Aldrich, St. Louis, MO, USA) 24 h later. The Caspase-3 DEVD-R110 Fluorometric HTS Assay Kit (30009, Biotium, Fremont, CA, USA), the Cell Meter™ Caspase 8 Activity Apoptosis Assay Kit (22798, AAT Bioquest, Sunnyvale, CA, USA), and the Cell Meter™ Caspase 9 Activity Apoptosis Assay Kit (22799, AAT Bioquest) were used following the manufacturer's instructions.

[1] = system: CCM3^-/- CI-huVECs in co-culture with CCM3^+/+ CI-huVECs; assay: Spike-in co-culture assay / apoptosis compound library screening: CCM3 knockout allele frequency by amplicon deep sequencing; type: cell-based, human
Protocol: (§1) Clonally expanded CI-huVEC lines with biallelic loss-of-function variants in the first coding exon of CCM3 have been described before or were established according to a published CRISPR/Cas9 genome editing protocol. Blood outgrowth endothelial cells (BOECs) were cultured in EGM-2 medium (Lonza, Basel, Switzerland) supplemented with 18 % FCS. With the approval of the local ethics committee (University Medicine Greifswald, Germany; No.: BB 047/14a), CCM1^-/- BOECs had been established previously from CCM1^+/- BOECs of a CCM1 mutation carrier with CRISPR/Cas9 genome editing. Mutant and wild-type ECs were co-cultured in 96-well plates under standard culture conditions with the indicated mutant-to-wild-type ratios. 2500 cells were seeded per well.
An apoptosis compound library with 189 small molecules that target apoptosis, survival and proliferation was used in a high throughput screening approach (HY-L003[HY-LD-000001651]; MedChem Express, Monmouth Junction, NJ, USA). Co-cultures were treated with 10 µM of each substrate for six days. Compounds were added 5 h and 3 days after cell seeding.
NSC59984 (IUPAC: (2E)-1-(4-Methyl-1-piperazinyl)-3-(5-nitro-2-furyl)-2-propen-1-one, HY19726, MedChem Express), was used for individual experiments with the indicated concentrations.
(§2) The fraction of mutant alleles in co-culture were analysed by amplicon deep sequencing or T7EI cleavage assay. In brief, genomic target regions were first amplified by PCR. For T7E1 cleavage assays, heteroduplexes were formed and digested with T7EI enzyme (New England Biolabs, Frankfurt am Main, Germany). Cleavage products were visualised by gel electrophoresis and analysed with the Image Lab software (v6.0, Bio-Rad, Hercules, CA, USA). For NGS analysis, sequencing adapters and individual barcodes were introduced in a second round of PCR [7]. Sequencing libraries were pooled and sequenced on a MiSeq instrument with 2 x 150 cycles (Illumina, San Diego, CA, USA). The data were analysed with the SeqNext software (JSI Medical Systems, Ettenheim, Germany).

CCM3^-/- CI-huVECs = assay: Cell cycle analysis by flow cytometry; type: cell-based, human; details: 10 µM, 72 h; DMSO 75.9 %
Protocol: Plating efficiencies were determined as follows: CCM3^+/+ and CCM3^-/- CI-huVEC were seeded in 6-well-plates with either 100 or 250 cells per well. Colonies fixed and stained after eight days with a solution of glutaraldehyde (G6257, Sigma-Aldrich, final concentration 6 %) and crystal violet (HT901, Sigma-Aldrich, final concentration 0.5 %). The plating efficiency was defined as the ratio between the number of colonies and the number of plated cells. A cell cycle analysis kit (MAK344, Sigma-Aldrich) was used to determine cell cycle profiles by flowcytometry (LSRII Flow Cytometer System, BD Biosciences, San Jose, CA, USA). One day after plating, cells were synchronised for 24 h with ECGM supplemented with 0.1 % FCS. Prior to FACS analysis, cells were incubated with ECGM + 10 % FCS for another 24 h or treated with 10 µM NSC59984 for 72 h. Data were analysed with FlowJo v10.7.1 (BD Biosciences).

[2] = system: CCM1^-/- BOECs in co-culture with CCM1^+/- BOECs; assay: Co-culture of patient-specific BOECs, frequency of second knockout allele; type: cell-based, human; details: 10 µM (Fig. 23)
Protocol: as §1
as §2, with “Sequencing libraries were pooled and sequenced on a MiSeq instrument with 2 x 150 cycles (Illumina, San Diego, CA, USA).” left out

CCM3^+/+ CI-huVECs = assay: CyQuant cell proliferation assay combined with mutant allele frequencies, co-culture (wild-type cells); type: cell-based, human; details: six days
Protocol: as §1, with “well. The proliferation rate of mutant and wild-type ECs in monoculture was quantified with the CyQuant® Cell Proliferation Assay Kit (C7026, Thermo Fisher Scientific). To discriminate the proliferation rates of CCM3^+/+ and CCM3^-/- CI-huVEC in co-culture, the CyQuant® Cell Proliferation Assay results were combined with mutant allele frequencies that had been determined by amplicon deep sequencing. To analyse their sensitivity to apoptosis, mutant and wild-type ECs were seeded in 96-well plates with 15.000 cells per well, and treated with staurosporine ([…], Sigma-Aldrich, St. Louis, MO, USA) 24 h later. […]” for “well.”

Question: Which “Cell growth of tumour cell lines” value (human tumour cell lines) does the source give for `CN1CCN(C(=O)/C=C/c2ccc([N+](=O)[O-])o2)CC1` [NSC59984, (E)-1-(4-methylpiperazin-1-yl)-3-(5-nitrofuran-2yl)prop-2-en-1-one] here?
Answer: reduce cell growth in various human tumour cell lines

Question: And the “Genotoxic effects on normal cells” value (human tumour cell lines)?
Answer: minimal genotoxic effects on normal cells

Question: What about the “Apoptosis / caspase-3 activation” value (caspase-3; Fig. 16) of the same molecule?
Answer: induced apoptosis at a tolerable level

Question: And the Caspase-3 activities (caspase-3; treatment for 24 h, CCM3^+/+ and CCM3^-/- CI-huVECs (Fig. 16))?
Answer: did not increase caspase-3 activities

Question: And the “Mutant EC expansion at high spike-in ratios” value ([1]; 10 µM (Fig. 20))?
Answer: blocked mutant EC expansion even at high spike-in ratios but did not decrease mutant allele frequencies

Question: What about the “Clonal expansion of mutant ECs after end of treatment” value ([1]; 10 µM for six days, then seven additional days without treatment (Fig. 21)) of the same molecule?
Answer: still efficiently blocked after the end of NSC59984 treatment

Question: What about the Knockout allele frequencies ([1]; 10 µM of each compound, six days, added 5 h and 3 days after seeding, DMSO-treated co-culture controls 33.5 %) of the same molecule?
Answer: 10.2%

Question: And the “Mutant EC expansion after pretreatment of CCM3^-/- CI-huVECs before co-culture” value ([1]; 6 days co-culture without additional treatment (Fig. 22))?
Answer: completely prevented mutant EC expansion

Question: What about the “Clonal expansion of CCM3^-/- CI-huVECs in co-culture” value ([1]; different concentrations (Fig. 18)) of the same molecule?
Answer: blocked the clonal expansion of CCM3^-/- CI-huVECs in a concentration-dependent manner

Question: What about the “Cells in G0/G1 (G0/G1 arrest)” value (CCM3^-/- CI-huVECs) of the same molecule?
Answer: 87.7%

Question: And the “Expansion of CCM1^-/- BOECs in co-culture” value [2]?
Answer: significantly blocked the expansion of CCM1^-/- BOECs

Question: What about the “Proliferation rate of wild-type ECs” value (CCM3^+/+ CI-huVECs; 10 µM) of the same molecule?
Answer: 295%

Question: What about the “Proliferation rate of wild-type ECs” value (CCM3^+/+ CI-huVECs; starting value of the decrease, concentration not printed (by parallel 1 µM)) of the same molecule?
Answer: 761%
